Experimental data reported in ChEMBL document CHEMBL1165854, “Computational screening for membrane-directed inhibitors of mast cell activation” (Eur J Med Chem, 2010).

Key:
RBL-2H3 [1] = experiment: Inhibition of rat RBL2H3 […] assessed as reduction of beta hexasaminidase release at 25 uM; format: functional
[2] = Toxicity in rat RBL2H3 cells; format: cell-based, RBL-2H3; settings: read-out: MTD
RBL-2H3 [3] = experiment: Inhibition of rat RBL2H3 […] assessed as reduction of beta hexasaminidase release; format: functional, cell-based
RBL-2H3 [4] = experiment: Inhibition of rat RBL2H3 […] assessed as reduction of beta hexasaminidase release at 10 uM; format: functional

## CCCCCCCCCCCCCCCCOC(=O)C[n+]1csc(CCO)c1C
RBL-2H3 [1]
  inhibition at 25 µM: 93%
[2]
  MNTC: 50 µM
RBL-2H3 [3]
  IC50: 5.5 µM

## CCCCCCCCCCCCCCCCNc1c2c(nc3c(C)cc(C)cc13)CC(C)(C)CC2=O
RBL-2H3 [1]
  inhibition at 25 µM: 7%

## CCCCCCCCCCCCCCCCCC(=O)Nc1c(C)c(CC)nc2ccccc12
RBL-2H3 [1]
  inhibition at 25 µM: 10%

## CCCCCCCCCCCCCCCCOP(=O)([O-])OC1CC2CCC(C1)[N+]2(C)C (stereo not drawn)
RBL-2H3 [4]
  inhibition at 10 µM: 82%
[2]
  MNTC: 25 µM
RBL-2H3 [3]
  IC50: 5.7 µM

## CCCCCCCCCCCCCCCCOP(=O)([O-])OCC[N+](C)(CC)CC
RBL-2H3 [4]
  inhibition at 10 µM: 88%
[2]
  MNTC: 50 µM
RBL-2H3 [3]
  IC50: 4.4 µM

## CCCCCCCCCCCCCCCCCCOC[C@H](COP(=O)([O-])OCC[N+](C)(C)C)OC [(R)-EDELFOSINE]
RBL-2H3 [1]
  inhibition at 25 µM: 79%
[2]
  MNTC: 25 µM
RBL-2H3 [3]
  IC50: 7.1 µM

## CCCCCCCCCCCCCCCCSCC(COC)COP(=O)([O-])OCC[N+](C)(C)C (stereo not drawn) [ILMOFOSINE]
RBL-2H3 [4]
  inhibition at 10 µM: 84%
[2]
  MNTC: 50 µM
RBL-2H3 [3]
  IC50: 6.4 µM

## CCCCCCCCCCCCCCCCOP(=O)([O-])OCC[N+](C)(C)C [MILTEFOSINE]
RBL-2H3 [4]
  inhibition at 10 µM: 87%
[2]
  MNTC: 25 µM
RBL-2H3 [3]
  IC50: 4.6 µM

## CCCCCCCCCCCCCCCCCCOP(=O)([O-])OC1CC[N+](C)(C)CC1 [PERIFOSINE]
RBL-2H3 [4]
  inhibition at 10 µM: 88%
[2]
  MNTC: 25 µM
RBL-2H3 [3]
  IC50: 5 µM
